Source: PubChem BioAssay (NCI)
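Cultured in 96-well plates, cells were exposed to test compound for 48 hours across five concentrations. The concentration for 50% growth inhibition is given as GI50. At the TGI there is no net growth.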

How the values were obtained:
Assay in all cases: NCI anticancer screen, dose series, 48 h
[1] = tested on: NCI-H522 lung
[2] = tested on: SNB-19 CNS
[3] = tested on: MOLT-4 leukemia
[4] = tested on: HT29 colon
[5] = tested on: KM12 colon
[6] = tested on: MDA-MB-435
[7] = tested on: SR leukemia
[8] = tested on: BT-549 breast
[9] = tested on: SNB-75 CNS
[10] = tested on: T-47D breast

COC(=O)/C=C(C)/C=C/c1c(C)c(C(C)=O)c(C)n1C
TGI [1]: > 100 µM | TGI [2]: > 100 µM | TGI [3]: > 100 µM | TGI [4]: > 100 µM | TGI [5]: > 100 µM

COc1ccc2[nH]cc(Cc3c[nH]c4ccc(OC)cc34)c2c1
GI50 [1]: 25.5 µM | TGI [1]: 77.3 µM | GI50 [2]: 29.3 µM | TGI [2]: 79.8 µM | GI50 [6]: 18.1 µM | TGI [6]: 35.3 µM | GI50 [7]: 77.8 µM | TGI [7]: > 100 µM | GI50 [3]: 37.4 µM | TGI [3]: > 100 µM | GI50 [8]: 17.4 µM | TGI [8]: 36.1 µM | GI50 [4]: 17.9 µM | TGI [4]: 32.3 µM | GI50 [5]: 19 µM | TGI [5]: 41.4 µM | GI50 [9]: 13.7 µM | TGI [9]: 50.6 µM

CC(O)(c1ccc(OCCC[N+](C)(C)C)cc1)C(C)(O)c1ccc(OCCC[N+](C)(C)C)cc1 (configuration not stated)
TGI [1]: > 100 µM | TGI [2]: > 100 µM | TGI [4]: > 100 µM | TGI [5]: > 100 µM | TGI [9]: > 100 µM

CCOP(=O)(OCC)C(NC(c1ccccc1)c1ccccc1)c1ccsc1 (configuration not stated)
GI50 [1]: 25.2 µM | TGI [1]: 74.5 µM | GI50 [6]: 21.2 µM | TGI [6]: 39.7 µM | GI50 [7]: 23 µM | TGI [7]: 98.2 µM | GI50 [3]: 25.4 µM | TGI [3]: > 100 µM | GI50 [8]: 27.5 µM | TGI [8]: 52.3 µM | GI50 [5]: 16.7 µM | TGI [5]: 37.5 µM

CC(Oc1ccc2c(=O)cc(-c3ccccc3)oc2c1)C(=O)O (configuration not stated)
TGI [1]: > 100 µM | TGI [2]: > 100 µM | TGI [7]: > 100 µM | TGI [3]: > 100 µM | TGI [4]: > 100 µM | TGI [5]: > 100 µM | TGI [9]: > 100 µM

CCCCCCCCCCCCCP(=O)(OC)OC
TGI [1]: 26.6 µM | TGI [2]: 38.6 µM | TGI [7]: 38.4 µM | TGI [3]: 36.5 µM | TGI [4]: 34.1 µM | TGI [5]: 31.9 µM | TGI [9]: 38.1 µM

O=C1C(c2ccccc2)=[N+]([O-])c2cc([N+](=O)[O-])ccc21
TGI [1]: 29.1 µM | TGI [2]: > 100 µM | TGI [3]: 51.6 µM | TGI [4]: 47.9 µM | TGI [5]: 47.5 µM | TGI [9]: > 100 µM

C=C1CCCC2OC(OC)CCC12 (configuration not stated)
TGI [1]: > 100 µM | TGI [2]: > 100 µM | TGI [7]: > 100 µM | TGI [3]: > 100 µM | TGI [4]: > 100 µM | TGI [5]: > 100 µM | TGI [9]: > 100 µM

O=C(CO)CC(=O)C(=O)Nc1cccc(C(F)(F)F)c1
TGI [1]: > 100 µM | TGI [2]: > 100 µM | TGI [7]: > 100 µM | TGI [3]: > 100 µM | TGI [4]: > 100 µM | TGI [5]: > 100 µM | TGI [9]: > 100 µM

CC(=O)CCn1[nH]c(=O)c(Cl)c(Cl)c1=O
TGI [2]: 31.1 µM | TGI [7]: > 100 µM | TGI [3]: > 100 µM | TGI [4]: > 100 µM | TGI [5]: > 100 µM | TGI [9]: > 100 µM

COc1ccc(C(=O)Nc2ccn(CCOC(=O)c3ccc(OC)cc3)c(=O)n2)cc1
TGI [1]: > 100 µM | TGI [7]: > 100 µM | TGI [4]: > 100 µM | TGI [5]: > 100 µM | TGI [9]: > 100 µM

Cl.[O-]c1cccc2cccnc12.[O-]c1cccc2cccnc12.[O-]c1cccc2cccnc12.[O-]c1cccc2cccnc12.[Ti+4]
GI50 [1]: 0.12 µM | TGI [1]: 0.256 µM | GI50 [2]: 70.8 µM | TGI [2]: > 100 µM | GI50 [6]: 11.6 µM | TGI [6]: > 100 µM | TGI [8]: > 100 µM | GI50 [4]: 0.914 µM | TGI [4]: 6.86 µM | GI50 [5]: 2.28 µM | TGI [5]: 8.04 µM | GI50 [9]: 9.55 µM | TGI [9]: > 100 µM

Oc1ccccc1/C=N\Nc1ccccc1
GI50 [1]: 1.73 µM | TGI [1]: 82.9 µM | GI50 [2]: 13.7 µM | TGI [2]: 95 µM | GI50 [6]: 2.87 µM | TGI [6]: > 100 µM | GI50 [3]: 0.974 µM | TGI [3]: 55.6 µM | GI50 [8]: 3.19 µM | TGI [8]: 25.4 µM | GI50 [4]: 9.39 µM | TGI [4]: 28.4 µM | GI50 [5]: 2.25 µM | TGI [5]: > 100 µM | GI50 [9]: 21.2 µM | TGI [9]: > 100 µM | GI50 [10]: 3.43 µM | TGI [10]: > 100 µM

CCCCCC1CC=CC(NC(=O)OCc2ccccc2)C1/C=C/CCCC1OCCO1 (configuration not stated)
TGI [1]: > 100 µM | TGI [2]: > 100 µM | TGI [3]: > 100 µM | TGI [4]: > 100 µM | TGI [5]: > 100 µM | TGI [9]: > 100 µM

CC1(C)C2=CCCC(=O)[C@@]2(C)CC[C@@H]1O
TGI [1]: > 100 µM | TGI [2]: > 100 µM | TGI [7]: > 100 µM | TGI [3]: > 100 µM | TGI [4]: > 100 µM | TGI [5]: > 100 µM | TGI [9]: > 100 µM

O=C(CC1(O)C(=O)Nc2c(Cl)cc(Cl)cc21)c1ccc([N+](=O)[O-])cc1 (configuration not stated)
TGI [1]: 46.4 µM | TGI [2]: > 100 µM | TGI [7]: > 80.6 µM | TGI [3]: > 100 µM | TGI [4]: > 100 µM | TGI [5]: > 100 µM | TGI [9]: > 87.6 µM

Cc1cc2oc(=O)cc(OC/C=C3/CCC(=O)O3)c2cc1C
GI50 [1]: 1.4 µM | TGI [1]: 2.97 µM | GI50 [2]: 3.04 µM | TGI [2]: 19 µM | GI50 [6]: 4.64 µM | TGI [6]: 18.5 µM | GI50 [3]: 2.25 µM | TGI [3]: 13.4 µM | GI50 [8]: 1.93 µM | TGI [8]: 6.73 µM | GI50 [4]: 2.9 µM | TGI [4]: 12.7 µM | GI50 [5]: 3.31 µM | TGI [5]: 18 µM | GI50 [9]: 1.97 µM | TGI [9]: 9.61 µM | GI50 [10]: 1.69 µM | TGI [10]: 7.5 µM

CC[C@@]1(O)C(=O)OCc2c1cc1n(c2=O)Cc2cc3cccc(N)c3nc2-1
GI50 [1]: 3.92 µM | TGI [1]: > 100 µM | GI50 [2]: 5.77 µM | TGI [2]: 50.3 µM | GI50 [7]: 0.478 µM | GI50 [3]: 2.35 µM | TGI [3]: > 100 µM | GI50 [4]: > 100 µM | TGI [4]: > 100 µM | GI50 [5]: > 100 µM | TGI [5]: > 100 µM | GI50 [9]: 2.72 µM | TGI [9]: 16.1 µM

CCCCCCCCC1C(C)c2c([nH]c3ccccc23)C2C(=O)N(c3ccccc3)C(=O)C21 (configuration not stated)
TGI [3]: 7.18 µM | TGI [4]: 19.1 µM | TGI [5]: 13.5 µM | TGI [9]: 39.9 µM

CN(C)c1ccc2cc3c(cc2c1)Oc1ccccc1N3.[Cl][Zn][Cl]
GI50 [1]: 1.94 µM | TGI [1]: 4.94 µM | GI50 [2]: 20.6 µM | TGI [2]: 52.2 µM | GI50 [6]: 1.98 µM | TGI [6]: 4.19 µM | GI50 [7]: 3.15 µM | TGI [7]: > 100 µM | GI50 [3]: 3.1 µM | TGI [3]: 16.2 µM | GI50 [8]: 14.4 µM | TGI [8]: 27.7 µM | GI50 [4]: 4.09 µM | TGI [4]: > 100 µM | GI50 [5]: 13.2 µM | TGI [5]: 29.1 µM | GI50 [9]: 11.4 µM | TGI [9]: 24.2 µM

CCOC1Oc2ccccc2C(=O)/C1=C\Nc1ccc(C(=O)O)c(O)c1 (configuration not stated)
GI50 [1]: > 100 µM | TGI [1]: > 100 µM | GI50 [2]: 28.6 µM | TGI [2]: 94.4 µM | GI50 [6]: 20.4 µM | TGI [6]: 44.4 µM | GI50 [7]: 39.4 µM | TGI [7]: > 100 µM | GI50 [3]: > 100 µM | TGI [3]: > 100 µM | GI50 [8]: 26.4 µM | TGI [8]: 87.5 µM | GI50 [4]: 28.7 µM | TGI [4]: 72.7 µM | GI50 [5]: 26.3 µM | TGI [5]: 65 µM | GI50 [9]: 20.3 µM | TGI [9]: 58.3 µM
